Reference: patent publication US10881642B2, “Autophagy enhancer and use thereof” (Industry-Academic Cooperation Foundation, Yonsei University, priority 2016, dated 2021)
Marks after values point to notes of the source that are not given here.

Columns and labels:
[1] = system: ob/ob mice; assay: Metabolic profile of ob/ob mice; assay type: in vivo
Description: FIG. 6A and FIG. 6B each indicates the fasting blood sugar and the body weights respectively from ob/ob mice which were treated with vehicle control or (50 mg/kg/2 days) for 8 weeks. FIG. 6C indicates the amount of feed intake from ob/ob mice which were treated with vehicle control or for 8 weeks. FIG. 6D and FIG. 6E each indicates the IPGTT results and AUC value measured after the 8 week administration. FIG. 6F and FIG. 6G indicates the ITT results and AUC value measured after the 8 week administration. FIG. 6H indicates the fasting blood sugar after the 8 week administration. FIG. 6I indicates the concentration of insulin after the 8 week administration. FIG. 6J indicate the result of HOMA-IR measured after the 8 week administration. FIG. 6K indicates the results the Insulinogenic index measured after the 8 week administration. Error bars, S.D. *, P<0.05; **, P<0.01; ***, P<0.001. Students t-test and one-way ANOVA.
FIG. 8A is the result of Hematoxylin-Eosin stained liver section from ob/ob mice treated with MSL compound or vehicle for 8 weeks. FIG. 8B is the result of measuring the concentration of TG using free glycerol reagent containing lipase in the lipid sample extracted using a mixture of chloroform/ethanol from the liver of ob/ob mice. FIG. 8C is the result of blood chemistry profile analyzed using chemical analyzer from serum sample obtained from ob/ob mice treated with MSL compound or vehicle for 8 weeks. FIG. 8D is the result of Hematoxylin-Eosin stained white adipose tissue section from ob/ob mice treated with MSL compound or vehicle for 8 weeks. FIG. 8E is the immuno-stained result of F4/80+ cells from white adipose tissue (left) and the quantification result of adipose cell F4/80+ CLS (right) indicated as a frequency of CLS (crown-like structures) in the white adipose tissue of the mice as described above. FIG. 8F is the result of quantifying the expression of WAT gene from the mice as described above using RT-PCR. Error bars, S.D. *, P<0.05; **, P<0.01; ***, P<0.001.
FIG. 11A is the result of fasting glucose concentration of ob/ob mice administered with vehicle control or MSL-7 (50 mg/kg/2 days) for 8 weeks. FIG. 11B is the body weight monitored of the mice of FIG. 11A. FIG. 11C is the result of experiments performed at 8 weeks after the administration of IPGTT (FIG. 1 IC) and ITT (FIG. 11D). FIG. 11E is the results of measuring blood chemistry profile of the ob/ob mice administered with vehicle control or MSL-7 compound for 8 weeks using chemical analyzer. Error bars, S.D. *, P<0.05; **, P<0.01; ***, P<0.001. Students t-test and one-way ANOVA. […]
We next studied whether MSL can activate autophagic flux in vivo. When we administered MSL after pretreatment with leupeptin (Ueno, T et al. (1991) Membrane markers of endoplasmic reticulum preserved in autophagic vacuolar membranes isolated from leupeptin-administered rat liver. J Biol Chem 266, 18995-18999), LC3-I to -II conversion was increased in the liver, supporting that MSL can increase autophagic flux in vivo. We next studied whether MSL administration can improve metabolic profile associated with obesity. We treated ob/ob mice with MSL at 50 mg/kg for 8 weeks.

[2] = system: ob/ob mice; assay: Toxicity: hemogram, blood chemistry and organ biopsy in ob/ob mice; assay type: in vivo; parameters: BUN: unit not given here; conditions: for level of liver enzymes: 8-week treatment; for CBC / fatty liver (major organ biopsy) / tissue histology of major organs (heart, kidney, muscle, spleen, lung, pancreas): 8 weeks; for tissue histology of major organs (heart, kidney, muscle, spleen, lung, pancreas): biopsy; for ALB / ALP / ALT / AST / BUN / CA / CPK / CRE / DBIL / GGT / LDH / TCHO / TG: blood chemistry; for BASO / EOS / MONO / NEU / LYM / WBC / RBC / HGB / HCT / PLT: hemogram; for BASO / EOS: normal range 0.0-0.2; for MONO: normal range 0.0-0.4; for NEU: normal range 0.1-2.4; for LYM: normal range 0.9-9.3; for WBC: normal range 1.8-10.7; for RBC: normal range 6.36-9.42; for HGB: normal range 11.0-15.1; for HCT: normal range 38.5-59.0; for PLT: normal range 592-2972
Description: Organs were harvested from ob/ob mice administered with MSL or MSL-7 for 8 weeks and stained with H&E for histological analysis. […] Other than that, no significant changes were observed (Scale Bar. 500 μm). […]
Finally, we studied whether MSL or MSL-7 has systemic toxicity. CBC was not changed by MSL or MSL-7 (Table 1).
Finally, in the present disclosure, the toxicity of the present enhancers were tested. The 8-week treatment of MSL or MSL-7 improved the metabolic profile, and reduced the level of liver enzymes (Table 1 below). […] In the major organ biopsy, there were found no side effects. Rather the fatty liver was improved (FIG. 14).
Table 1 indicates the hemogram and blood chemistry analyzed after administration of the present autophagy enhancer for 8 week in vivo. […] Other than that, there are no adverse changes were found.

SMILES	body weight ([1]; 50 mg/kg, 8 weeks)	non-fasting blood glucose level ([1]; 50 mg/kg, 8 weeks)	glucose tolerance (IPGTT) ([1]; 8 weeks)	insulin sensitivity (ITT) ([1]; 8 weeks)	level of liver enzymes [2]	CBC [2]	fatty liver (major organ biopsy) [2]	tissue histology of major organs (heart, kidney, muscle, spleen, lung, pancreas) [2]	ALB ([2]; 8 week)	ALP ([2]; 8 week)	ALT ([2]; 8 week)	AST ([2]; 8 week)	BUN ([2]; 8 week)	CA ([2]; 8 week)	CPK ([2]; 8 week)	CRE ([2]; 8 week)	DBIL ([2]; 8 week)	GGT ([2]; 8 week)	LDH ([2]; 8 week)	TCHO ([2]; 8 week)	further results
COc1oc(-c2ccccc2Cl)nc1S(=O)(=O)c1ccccc1 [MSL-7, 2-(2-chlorophenyl)-5-methoxy-4-(phenylsulfonyl) oxazole]	without significant effect on body weight	significantly improved	significantly improved	significantly improved	reduced	not changed	improved	no significant alteration	1.1 ± 1.0 g/dL	278 ± 26.11^b U/L	146.9 ± 21.59^b U/L	153.8 ± 12.81^b U/L	20 ± 0.89	10.75 ± 0.32 mg/dL	241.3 ± 18.19 U/L	1 ± 0 mg/dL	<0.5 mg/dL	<5 U/L	810 ± 112.40^c U/L	136.9 ± 9.73 mg/dL	serum TG level and LDH level compared to MSL ([2]; 8 week): significantly lower; TG ([2]; 8 week): 78.6 ± 22.50^b mg/dL; BASO ([2]; 8 week): 0.01 ± 0.01 K/μL; EOS ([2]; 8 week): 0.04 ± 0.01 K/μL; MONO ([2]; 8 week): 0.28 ± 0.05 K/μL; NEU ([2]; 8 week): 1.97 ± 0.16 K/μL; LYM ([2]; 8 week): 3.97 ± 0.38 K/μL; WBC ([2]; 8 week): 6.26 ± 0.52 K/μL; RBC ([2]; 8 week): 9.22 ± 0.12 M/μL; HGB ([2]; 8 week): 13.60 ± 0.19 g/dL; HCT ([2]; 8 week): 49.25 ± 0.78%; PLT ([2]; 8 week): 1031 ± 55 K/μL
CSc1oc(-c2ccccc2)nc1S(=O)(=O)c1ccc(F)cc1 [MSL]	not affected	significantly decreased	significant improvement	significant improvement	reduced	not changed	improved	no significant alteration	1.1 ± 0.10 g/dL	267 ± 35.02^b U/L	183.7 ± 35.71^b U/L	158.1 ± 16.39^c U/L	21.13 ± 1.38	11.13 ± 0.24 mg/dL	323.8 ± 29.68 U/L	0.75 ± 0.14 mg/dL	<0.5 mg/dL	<5 U/L	1428 ± 148.90^b U/L	150 ± 12.22 mg/dL	Food intake ([1]; 50 mg/kg, 8 weeks): not affected; AUC of IPGTT and ITT ([1]; 8 weeks): reduced; Fasting blood glucose levels ([1]; 8 weeks): significantly improved; HOMA-IR index ([1]; 8 weeks): slightly decreased; Serum ALT/ASL levels ([1]; 8 weeks): significantly reduced; number of crown-like structures (CLSs) in WAT ([1]; 8 weeks): significantly decreased; accumulation of lipid droplets in the liver ([1]; 8 weeks, H&E): apparently reduced; expression of inflammatory markers (Tnfa, I-16, II-1β, F4/80), real-time RT-PCR ([1]; WAT, 8 weeks): significantly reduced; liver lipid content (Oil Red O staining) ([1]; data not shown): decreased; TG ([2]; 8 week): 13.9 ± 16.41^a mg/dL; BASO ([2]; 8 week): 0.05 ± 0.01 K/μL; EOS ([2]; 8 week): 0.165 ± 0.06 K/μL; MONO ([2]; 8 week): 0.35 ± 0.109 K/μL; NEU ([2]; 8 week): 2.34 ± 0.51 K/μL; LYM ([2]; 8 week): 4.73 ± 0.95 K/μL; WBC ([2]; 8 week): 7.64 ± 1.54 K/μL; RBC ([2]; 8 week): 8.82 ± 0.54 M/μL; HGB ([2]; 8 week): 14.30 ± 0.56 g/dL; HCT ([2]; 8 week): 46.9 ± 2.4%; PLT ([2]; 8 week): 1081 ± 61 K/μL
